Measurements taken from US20080070890A1, “Spirocyclic Azetidinone Compounds and Methods of Use Thereof” (priority 2006, published 2008).

Target: TRPV1 (Homo sapiens, UniProt Q8NER1)
Experiment: cell-based
Description: Combine 42 μL of dye mixture with 11 mL of FLIPR buffer/96-well plate.
Laser is adjusted upwards for an average signal≧10,000/well and less than 10% variability.

TRPV1, sequence (Q8NER1 whole entry, species assumed): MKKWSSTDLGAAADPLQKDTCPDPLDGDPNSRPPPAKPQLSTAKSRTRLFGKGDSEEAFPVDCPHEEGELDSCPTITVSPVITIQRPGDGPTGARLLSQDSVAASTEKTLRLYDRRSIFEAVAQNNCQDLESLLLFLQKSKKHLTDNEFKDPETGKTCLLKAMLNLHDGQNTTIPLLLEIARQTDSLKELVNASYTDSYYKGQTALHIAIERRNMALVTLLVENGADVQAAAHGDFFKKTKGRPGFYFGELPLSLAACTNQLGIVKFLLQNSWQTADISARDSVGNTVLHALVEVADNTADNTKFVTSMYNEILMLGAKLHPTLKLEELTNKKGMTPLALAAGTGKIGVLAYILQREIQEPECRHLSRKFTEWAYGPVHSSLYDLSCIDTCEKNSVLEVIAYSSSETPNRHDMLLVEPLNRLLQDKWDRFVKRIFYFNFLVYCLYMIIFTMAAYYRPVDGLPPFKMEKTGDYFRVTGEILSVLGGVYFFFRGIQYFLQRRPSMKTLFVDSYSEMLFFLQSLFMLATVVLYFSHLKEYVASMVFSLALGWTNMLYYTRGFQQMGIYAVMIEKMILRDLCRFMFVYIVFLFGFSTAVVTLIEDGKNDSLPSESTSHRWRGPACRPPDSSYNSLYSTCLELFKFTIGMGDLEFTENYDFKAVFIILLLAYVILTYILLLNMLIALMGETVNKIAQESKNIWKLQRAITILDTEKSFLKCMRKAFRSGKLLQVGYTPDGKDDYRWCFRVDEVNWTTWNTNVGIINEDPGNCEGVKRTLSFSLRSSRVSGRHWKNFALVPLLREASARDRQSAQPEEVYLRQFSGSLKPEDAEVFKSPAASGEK

IC50: ~500 nM
SMILES: Oc1cc2c(cc1O)CN(C(=S)NCCc1ccc(Cl)cc1)CCC2 [capsazepine]
